According to patent publication US4192871A, “Chemical compounds” (Glaxo Laboratories Limited, priority 1976, dated 1980):

What was measured:
pH of the salt solutions = type: physicochemical
Procedure: (§1) A solution of the above free base (492 mg; 1 mmole) in ethanol (10 ml) was treated with a solution (10 ml) of M/10 citric acid in ethanol water (9:1) and the mixture evaporated in vacuo at low temperature to afford a froth.
(§2) Table 5 summarises the properties and preparation of salts of the invention by one of the following methods:
(§3) A. The 11β-aminoester (1 part) was added to a solution of the acid (1 molar part) in water and the mixture stirred or shaken until a clear solution was obtained. The solution was made up with water to the weight indicated, filtered through a membrane and the pH determined.
(§4) B. The 11β-aminoester (1 part) was added to a solution of the acid (1 molar part) in water and the mixture stirred or shaken. As free base remained undissolved, further acid was added and the mixture agitated again. The solution was made up with water to the weight indicated and any material which then remained undissolved was collected in a weighed funnel and the weight of free base dissolved calculated and the pH of the solution measured.
(§5) C. A mixture of the 11β-aminoester (1 part), a 0.1 M solution of the acid (1 molar part) and ethanol was evaporated in vacuo and dried to constant weight. The residue was dissolved in a little water and any material which then remained undissolved collected in a weighed funnel and the weight of free base dissolved calculated. The solution was made up with water to the weight indicated and its pH measured.
(§6) D. The 11β-aminoester (1 part) was added to a solution of the acid (1 molar part) in water and the mixture stirred or shaken. The solution was made up with water to the weight indicated. The material remaining undissolved was collected in a weighed funnel and the weight of free base dissolved calculated and the pH of the solution measured.
(§7) E. As in method C except that further acid was added to the residue after addition of the small amount of water.
11β-N,N-Diethylaminoacetoxy-2β-ethoxy-3α-hydroxy-5α-pregnan-20-one (1.45 g) was agitated with citric acid monohydrate (621 mg) in 0.9% w/v sodium chloride solution (steriflex^(R)) (130 ml.) at 20° for 16.5 hours. The resulting solution was stirred at 21° and N/5 sodium hydroxide solution in steriflex^(R) (10.5 ml) was added dropwise during 30 minutes, raising the pH from 3.63 to 4.52. The solution was diluted to 162.5 g so that the concentration of steroid was 9 mg/ml. The solution of the citrate was filtered through a membrane and finally filtered into 8 sterile ampoules.
11β-(N-Butyl-N-ethylaminoacetoxy)-3α-hydroxy-5α-pregnan-20-one (1.80 g) was agitated with citric acid monohydrate (793 mg) in 0.9% w/v sodium chloride solution (steriflex^(R)) (160 ml) at 20° for 19.5 hours. The resulting solution was slightly cloudy. This solution was stirred at 21° and N/5 sodium hydroxide solution in steriflex^(R) (5.8 ml) was added dropwise during 15 minutes, raising the pH from 3.62 to 4.00. The solution was diluted to 201.2 g so that the concentration of steroid was 9 mg/ml. The cloudiness was removed by filtration through a membrane and the clear solution of the citrate was filtered into 8 sterile ampoules.
Sodium iodide (0.250 g) and diethylamine (0.5 ml) were added to a solution of 11β-chloroacetoxy-2β-ethoxy-3α-hydroxy-D-homo-5α-pregnan-20-one (0.250 g) in acetone (10 ml) and the mixture was left at room temperature for 3 days during which time a white solid precipated. Water was added and the yellow solution was concentrated in vacuo whereupon crystallisation occurred. The needles were filtered off and washed well with acetone/water yielding the title compound (0.201 g), m.p. 160°-73°, [α]D +60.8°. The above base (0.101 g) was stirred with citric acid monohydrate (0.042 g) in water (9.5 ml) for 21 hours. The solution was made up to 10.1 g by weight. The solid remaining out of solution was filtered off, dried and weighed. The solution was passed through a millipore filter giving an aqueous solution of the title compound, concentration 9.75 mg/ml, pH 3.66. […]

[1] = dissolution of the 11β-aminoester salts in aqueous acid (Table 5 and Examples 101, 225-229); type: physicochemical
Procedure: as §1, §2, §3, §4, §5, §6, §7
The solid citric acid used was as its monohydrate.
Sodium iodide (0.250 g) and diethylamine (0.5 ml) were added to a solution of 11β-chloroacetoxy-2β-ethoxy-3α-hydroxy-D-homo-5α-pregnan-20-one (0.250 g) in acetone (10 ml) and the mixture was left at room temperature for 3 days during which time a white solid precipated. Water was added and the yellow solution was concentrated in vacuo whereupon crystallisation occurred. The needles were filtered off and washed well with acetone/water yielding the title compound (0.201 g), m.p. 160°-73°, [α]D +60.8°. The above base (0.101 g) was stirred with citric acid monohydrate (0.042 g) in water (9.5 ml) for 21 hours. The solution was made up to 10.1 g by weight. The solid remaining out of solution was filtered off, dried and weighed. The solution was passed through a millipore filter giving an aqueous solution of the title compound, concentration 9.75 mg/ml, pH 3.66.
The above base (0.096 g) was stirred in a solution of citric acid monohydrate (0.038 g) in water (8.5 ml) for 20 hours. A large proportion of the steroid remained out of solution. More citric acid (0.038 g) was added and the mixture stirred for a further 6 hours. The solution was made up to 9.6 g by weight and the solid remaining out of solution was filtered off, dried and weighed. The solution was passed through a millipore filter giving an aqueous solution of the title compound, concentration 9.5 mg/ml, pH 2.85.
To a solution of citric acid monohydrate (52.5 mg) in water (2 ml) was added the above free base (115 mg). More water (8 ml) was added and the mixture was stirred for 72 hrs. A small amount of steroid remained out of solution and more citric acid (52.5 mg) was added. Within 5 mins. a clear solution was obtained which was made up to 11.5 g with water and filtered through a millipore filter yielding an aqueous solution of the title citrate, concentration 10 mg/ml, pH 3.0.
The above free base (112 mg) was added to a solution of citric acid monohydrate (52.5 mg) in water (2 ml). More water (8 ml) was added and the mixture was swirled from time to time. […]

[2] = aqueous solution of the salt, Table 5
[3] = method C: ethanol evaporated, residue in water, undissolved material weighed, WT. of solution Ex. 118: 10, 120: 10.4, 148: 9.54, 152: 5.6, 154: 9.1, 155: 8.77, 156: 9.06, 157: 9.5, 158: 9.38, 159: 9.17, 179: 9.65, 180: 11.7, 182: 4.9, 202: 12.05, 213: 12, 214: 11.5, 215: 11.1, 216: 11.6, 217: 12.1 g
[4] = method E: as C with further acid, WT. of solution Ex. 160: 6.12, 161: 7.8, 203: 12.7, 212: 12.125, 220: 10 g
[5] = method B: further acid added, undissolved material weighed, WT. of solution 10 g, except Ex. 130 and 141: 9.2, 142: 9.23, 143, 144, 189 and 199: 9.8, 149: 10.6, 153: 7.9, 162 and 188: 9.5, 163: 68, 166: 10.4, 168: 10.7, 169: 10.9, 183: 8.05, 184 and 201: 9.83, 185: 7.1, 186: 9.3, 192: 10.07, 193: 6.4, 195: 6.8, 196: 7, 197: 7.2, 200: 10.1, 206: 15 g
[6] = method A: clear solution, 1 molar part acid, made up with water to WT. of solution 10 g, except Ex. 121 and 150: 12, 123: 12.3, 124: 7.5, 129: 10.3, 135 and 139: 8.95, 164: 10.35, 170: 10.4, 181: 10.04, 187: 9.5, 210: 10.2, 221: 15 g
[7] = method D: 1 molar part acid, undissolved material weighed, WT. of solution 10 g, except Ex. 136: 8.95, 140: 9.52, 165 and 167: 10.1, 190 and 198: 9.8, 191: 8.9, 194: 6.6, 204: 10.09, 219: 10.6 g
[8] = aqueous solution, pH adjusted with sodium hydroxide solution

| Structure (SMILES) | pH (pH of the salt solutions; [2]) | Dissolved aminoester [1, 5] | also measured |
| --- | --- | --- | --- |
| CC(=O)[C@H]1CC[C@H]2[C@@H]3CC[C@H]4C[C@H](O)CC[C@]4(C)[C@H]3[C@@H](OC(=O)CN3CCCCC3)C[C@]12C [Example 156] | 3.52 | – | Dissolved aminoester [1, 3]: 90.3 mg |
| CC(=O)[C@H]1CC[C@H]2[C@@H]3CC[C@H]4C[C@H](O)CC[C@]4(C)[C@H]3[C@@H](OC(=O)CN3CCCC(C)C3)C[C@]12C (some centres unmarked) [Example 157] | 3.59 | – | Dissolved aminoester [1, 3]: 95 mg |
| CC(=O)[C@H]1CC[C@H]2[C@@H]3CC[C@H]4C[C@H](O)CC[C@]4(C)[C@H]3[C@@H](OC(=O)CN3CCC(C)CC3)C[C@]12C [Example 158] | 3.60 | – | Dissolved aminoester [1, 3]: 93.8 mg |
| CC(=O)[C@H]1CC[C@H]2[C@@H]3CC[C@H]4C[C@H](O)CC[C@]4(C)[C@H]3[C@@H](OC(=O)CN3CCCCCC3)C[C@]12C [Example 159] | 3.55 | – | Dissolved aminoester [1, 3]: 91.7 mg |
| CC(=O)[C@H]1CC[C@H]2[C@@H]3CC[C@H]4C[C@H](O)CC[C@]4(C)[C@H]3[C@@H](OC(=O)CN3CC4CCC(CC4)C3)C[C@]12C [Example 160] | 2.6 | – | Dissolved aminoester [1, 4]: 80.6 mg |
| CCCN(CCC)CC(=O)O[C@H]1C[C@]2(C)[C@@H](C(C)=O)CC[C@H]2[C@@H]2CC[C@H]3C[C@H](O)[C@@H](C)C[C@]3(C)[C@H]21 [Example 161] | 2.8 | – | Dissolved aminoester [1, 4]: 78 mg |
| CC(=O)C1CCC2C3CCC4CC(O)CCC4(C)C3C(OC(=O)CNC(C)CC(C)C)CC12C (centres unmarked) [Example 162] | 3.0 | 86 mg | – |
| CC(=O)C1CCC2C3CCC4CC(O)CCC4(C)C3C(OC(=O)CNC(C)CC(C)C)CC12C (centres unmarked) [Example 163] | 3.08 | 68 mg | – |
| CCOC1CC2(C)C(CCC3C4CCC(C(C)=O)C4(C)CC(OC(=O)CN4CCC(C)CC4)C32)CC1O (centres unmarked) [Example 164] | 3.72 | – | Dissolved aminoester [1, 6]: 103.5 mg |
| CCOC1CC2(C)C(CCC3C4CCC(C(C)=O)C4(C)CC(OC(=O)CNCCC(C)C)C32)CC1O (centres unmarked) [Example 165] | 3.68 | – | Dissolved aminoester [1, 7]: 76.5 mg |
| CCOC1CC2(C)C(CCC3C4CCC(C(C)=O)C4(C)CC(OC(=O)CNC(C)CC(C)C)C32)CC1O (centres unmarked) [Example 166] | 3.28 | 104 mg | – |
| CCN(CC)CC(=O)OC1CC2(C)C(C(C)=O)CCC2C2CCC3CC(O)C(OC(C)C)CC3(C)C12 (centres unmarked) [Example 167] | 3.65 | – | Dissolved aminoester [1, 7]: 93 mg |
| CCCCOC1CC2(C)C(CCC3C4CCC(C(C)=O)C4(C)CC(OC(=O)CN(C)CCCC)C32)CC1O (centres unmarked) [Example 168] | 2.4 | 70.5 mg | – |
| CCCCOC1CC2(C)C(CCC3C4CCC(C(C)=O)C4(C)CC(OC(=O)CN4CCC(C)CC4)C32)CC1O (centres unmarked) [Example 169] | 2.8 | 80.5 mg | – |
| CCCCN(C)CC(=O)OC1CC2(C)C(C(C)=O)CCC2C2CCC3CC(O)C(OC(C)=O)CC3(C)C12 (centres unmarked) [Example 170] | 3.7 | – | Dissolved aminoester [1, 6]: 104 mg |
| CCN(CC)CC(=O)O[C@H]1C[C@]2(C)[C@@H](C(C)=O)CC[C@H]2[C@@H]2C[C@@H](C)[C@H]3C[C@H](O)CC[C@]3(C)[C@H]21 [Example 171] | 3.4 | – | Dissolved aminoester [1, 6]: 100 mg |
| CCN(CC)CC(=O)OC1CC2(C)C(C(=O)COC)CCC2C2CCC3CC(O)CCC3(C)C12 (centres unmarked) [Example 172] | 3.2 | – | Dissolved aminoester [1, 6]: 100 mg |
| CCN(CC)CC(=O)OC1CC2(C)C(C(C)=O)CCC2C2CCC3CC(O)C(C)CC3(C)C12 (centres unmarked) [Example 173] | 2.82 | 78 mg | – |
| CCCCN(CC)CC(=O)OC1CC2(C)C(C(C)=O)CCC2C2CCC3CC(O)C(C)CC3(C)C12 (centres unmarked) [Example 174] | 2.90 | 100 mg | – |
| CC(=O)C1CCC2C3CCC4CC(O)C(C)CC4(C)C3C(OC(=O)CN3CCC(C)CC3)CC12C (centres unmarked) [Example 175] | 2.96 | 95 mg | – |
| CCN(CC)CC(=O)OC1CC2(C)C(C(C)=O)CCC2C2CCC3CC(O)C(C)CC3(C)C12 (centres unmarked) [Example 176] | 3.7 | – | Dissolved aminoester [1, 6]: 103 mg |
| CCCCN(C)CC(=O)OC1CC2(C)C(CC(C)C2C(C)=O)C2CCC3CC(O)CCC3(C)C12 (centres unmarked) [Example 177] | – | – | pH (pH of the salt solutions; [8]): 4.0; Dissolved aminoester [1, 6]: 100 mg |
| CC(=O)C1C(C)CC2C3CCC4CC(O)CCC4(C)C3C(OC(=O)CN3CCC(C)CC3)CC21C (centres unmarked) [Example 178] | 3.6 | – | Dissolved aminoester [1, 6]: 100 mg |
| CC(=O)[C@H]1CC[C@H]2[C@@H]3CC[C@H]4C[C@H](O)CC[C@]4(C)[C@H]3[C@@H](OC(=O)C(C)N3CCC(C)CC3)C[C@]12C (some centres unmarked) [Example 179] | – | – | pH (pH of the salt solutions; [8]): 3.66; Dissolved aminoester [1, 3]: 96.5 mg |
| CC(=O)[C@H]1CC[C@H]2[C@@H]3CC[C@H]4C[C@H](O)CC[C@]4(C)[C@H]3[C@@H](OC(=O)C(C)N3CCCCC3)C[C@]12C (some centres unmarked) [Example 180] | 3.60 | – | Dissolved aminoester [1, 3]: 117 mg |
